Results: US10300031B2, “Pharmaceutical compositions for treating chronic pain and pain associated with neuropathy” (priority 2007, dated 2019)
Where “and” joins values, the source holds several entries; their conditions need not be identical. Identical values can stand only once. Counter-ions that a name gives are not always drawn. Like-named read-outs stand apart in the source and are kept apart here.

What was measured:
postherpetic neuralgia = details: oral amitriptyline; cited from earlier work
[1] = tested on: painful diabetic neuropathy; details: oral amitriptyline; cited from earlier work
[2] = tested on: Na+ currents in adrenal chromaffin cells; details: read-out: IC50, peak Na+ currents; cited from earlier work
cardiac Na+ channels = cardiac Na+ channels (Homo sapiens, UniProt Q14524); details: cited from earlier work
cardiac Na+ channels, sequence (Q14524 whole entry): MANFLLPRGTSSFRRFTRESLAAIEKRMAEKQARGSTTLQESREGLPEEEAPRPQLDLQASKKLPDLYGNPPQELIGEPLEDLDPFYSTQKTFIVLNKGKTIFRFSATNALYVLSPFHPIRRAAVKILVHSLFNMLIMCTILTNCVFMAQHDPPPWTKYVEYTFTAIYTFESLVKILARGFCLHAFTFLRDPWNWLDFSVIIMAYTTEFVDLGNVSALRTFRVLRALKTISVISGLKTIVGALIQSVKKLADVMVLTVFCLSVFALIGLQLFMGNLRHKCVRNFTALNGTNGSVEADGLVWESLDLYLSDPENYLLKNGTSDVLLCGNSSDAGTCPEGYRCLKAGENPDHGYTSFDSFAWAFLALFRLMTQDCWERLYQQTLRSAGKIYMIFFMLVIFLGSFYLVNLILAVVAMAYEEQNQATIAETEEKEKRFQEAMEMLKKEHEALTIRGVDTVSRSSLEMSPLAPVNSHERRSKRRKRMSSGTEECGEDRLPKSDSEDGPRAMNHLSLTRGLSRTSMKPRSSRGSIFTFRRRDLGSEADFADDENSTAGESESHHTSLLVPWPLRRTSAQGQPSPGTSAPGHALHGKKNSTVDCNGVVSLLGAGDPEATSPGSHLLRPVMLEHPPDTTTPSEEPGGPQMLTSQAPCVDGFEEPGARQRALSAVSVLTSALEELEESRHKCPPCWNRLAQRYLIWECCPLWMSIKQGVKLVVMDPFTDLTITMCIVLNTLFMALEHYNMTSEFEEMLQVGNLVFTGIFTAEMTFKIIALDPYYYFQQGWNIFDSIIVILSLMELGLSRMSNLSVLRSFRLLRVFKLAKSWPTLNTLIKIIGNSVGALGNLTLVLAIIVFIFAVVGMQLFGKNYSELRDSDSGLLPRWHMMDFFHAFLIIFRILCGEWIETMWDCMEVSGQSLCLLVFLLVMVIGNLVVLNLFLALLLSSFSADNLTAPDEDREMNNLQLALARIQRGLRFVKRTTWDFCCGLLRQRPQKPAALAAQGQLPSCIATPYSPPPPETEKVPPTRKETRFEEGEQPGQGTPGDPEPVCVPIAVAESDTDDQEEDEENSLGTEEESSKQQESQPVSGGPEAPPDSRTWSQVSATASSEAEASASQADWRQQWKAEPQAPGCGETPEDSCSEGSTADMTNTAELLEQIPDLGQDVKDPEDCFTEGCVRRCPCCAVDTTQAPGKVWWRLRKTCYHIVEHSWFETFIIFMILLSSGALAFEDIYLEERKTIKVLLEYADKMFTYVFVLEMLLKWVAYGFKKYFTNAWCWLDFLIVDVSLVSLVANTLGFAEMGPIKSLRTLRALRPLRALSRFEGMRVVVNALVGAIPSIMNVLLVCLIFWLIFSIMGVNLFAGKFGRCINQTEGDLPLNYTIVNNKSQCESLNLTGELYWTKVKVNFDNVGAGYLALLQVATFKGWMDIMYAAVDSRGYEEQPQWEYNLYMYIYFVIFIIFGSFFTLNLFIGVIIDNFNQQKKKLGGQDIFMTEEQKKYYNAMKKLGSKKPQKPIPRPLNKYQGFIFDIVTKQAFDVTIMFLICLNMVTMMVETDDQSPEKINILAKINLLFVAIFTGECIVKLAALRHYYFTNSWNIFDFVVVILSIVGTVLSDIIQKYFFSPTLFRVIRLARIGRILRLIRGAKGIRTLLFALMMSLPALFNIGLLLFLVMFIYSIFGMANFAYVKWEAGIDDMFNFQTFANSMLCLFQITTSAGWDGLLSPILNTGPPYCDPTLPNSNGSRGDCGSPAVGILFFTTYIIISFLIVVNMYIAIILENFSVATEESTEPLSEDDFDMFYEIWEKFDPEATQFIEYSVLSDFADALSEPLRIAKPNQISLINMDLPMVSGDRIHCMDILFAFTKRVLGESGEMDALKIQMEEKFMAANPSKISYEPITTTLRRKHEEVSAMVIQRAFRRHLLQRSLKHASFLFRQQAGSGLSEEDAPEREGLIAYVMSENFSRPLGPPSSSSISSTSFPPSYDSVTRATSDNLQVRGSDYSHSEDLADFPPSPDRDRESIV

hH1 Na+ channels = hH1 Na+ channels (Homo sapiens, UniProt Q14524); details: cited from earlier work; for IC50: 0.1-100 μM
hH1 Na+ channels, sequence (Q14524 whole entry): as above

diabetic neuropathy pain [3] = test: Combination therapy in patients with diabetic neuropathy (Table 2, testimonies); details: for pain relief (patient or physician testimony): diabetic neuropathy patients; for side effects / tolerability: two patients with diabetic peripheral polyneuropathy; for Pain Relief (percent of reduction in pain), Diabetic Neuropathy: TLI-1026 twice daily (N = 5), single agents mg/day: dextromethorphan 70, tramadol 70, gabapentin 180
fibromyalgia pain = test: Combination therapy in patients with fibromyalgia (Table 2, testimonies); format: in vivo, human; details: for Pain Relief (percent of reduction in pain), Fibromyalgia: TLI-1026 twice daily (N = 5), single agents mg/day: dextromethorphan 70, tramadol 70, gabapentin 180
[4] = tested on: pain in diabetic neuropathy and fibromyalgia patients; test: Pooled statements on pain reduction in diabetic neuropathy and fibromyalgia patients; format: in vivo, human
Diabetic Neuropathy = details: Dose mg/day: dextromethorphan hydrobromide 400-480, tramadol hydrochloride 400, gabapentin 3600; cited from earlier work
Fibromyalgia = details: Dose mg/day: dextromethorphan hydrobromide 400-480, tramadol hydrochloride 400, gabapentin 3600; cited from earlier work
μ-opiate receptors = μ-opiate receptors (Homo sapiens, UniProt P35372); details: cited from earlier work
μ-opiate receptors, sequence (P35372 whole entry): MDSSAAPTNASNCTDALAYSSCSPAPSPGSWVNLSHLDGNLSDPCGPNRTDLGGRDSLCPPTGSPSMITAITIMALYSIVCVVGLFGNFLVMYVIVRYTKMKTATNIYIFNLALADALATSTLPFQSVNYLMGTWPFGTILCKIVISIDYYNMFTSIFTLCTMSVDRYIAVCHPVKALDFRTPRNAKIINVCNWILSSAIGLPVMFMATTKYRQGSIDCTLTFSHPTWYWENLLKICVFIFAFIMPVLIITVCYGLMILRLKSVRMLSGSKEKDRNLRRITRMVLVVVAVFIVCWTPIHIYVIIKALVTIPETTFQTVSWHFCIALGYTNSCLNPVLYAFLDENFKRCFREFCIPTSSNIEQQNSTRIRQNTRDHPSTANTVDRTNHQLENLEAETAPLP

[5] = cited from earlier work; for accumulation during multiple dose treatment: multiple dose treatment with tramadol
[6] = 0.2M sodium chloride; cited from earlier work
[7] = tested on: transient K+ channels in hippocampal neurons; details: cited from earlier work
[8] = tested on: pain (arthritis, back, cancer neuropathy, tooth, lumbar, cervical spondyolosis, knee); details: in vivo
pain score in patients = details: cited from earlier work
[9] = tested on: patients with diabetic peripheral neuropathy; details: diabetic peripheral neuropathy trials; cited from earlier work
[10] = tested on: patients with fibromyalgia; details: fibromyalgia trials, cited from earlier work
[11] = cited from earlier work
CYP1A2 = CYP1A2 (Homo sapiens, UniProt P05177); details: gabapentin concentrations up to 171 μg/mL; cited from earlier work
CYP1A2, sequence (P05177 whole entry): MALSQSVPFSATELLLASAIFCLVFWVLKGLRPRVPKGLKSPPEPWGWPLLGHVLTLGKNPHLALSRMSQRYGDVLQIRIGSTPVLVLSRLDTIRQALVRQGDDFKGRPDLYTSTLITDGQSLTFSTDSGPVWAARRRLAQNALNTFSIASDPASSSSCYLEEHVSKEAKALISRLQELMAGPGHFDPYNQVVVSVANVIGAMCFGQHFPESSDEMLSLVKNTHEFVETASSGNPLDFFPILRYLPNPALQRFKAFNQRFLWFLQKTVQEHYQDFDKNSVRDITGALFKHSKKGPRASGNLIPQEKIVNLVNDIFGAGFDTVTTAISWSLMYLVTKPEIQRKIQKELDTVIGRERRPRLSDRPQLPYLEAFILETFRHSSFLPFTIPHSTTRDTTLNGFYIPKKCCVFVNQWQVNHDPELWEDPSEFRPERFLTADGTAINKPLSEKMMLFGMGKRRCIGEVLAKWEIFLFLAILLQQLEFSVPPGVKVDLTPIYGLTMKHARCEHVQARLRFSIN

CYP2C9 = CYP2C9 (Homo sapiens, UniProt P11712); details: gabapentin concentrations up to 171 μg/mL; cited from earlier work
CYP2C19 = CYP2C19 (Homo sapiens, UniProt P33261); details: gabapentin concentrations up to 171 μg/mL; cited from earlier work
CYP2D6 = CYP2D6 (Homo sapiens, UniProt P10635); details: gabapentin concentrations up to 171 μg/mL; cited from earlier work
CYP2E1 = CYP2E1 (Homo sapiens, UniProt P05181); details: gabapentin concentrations up to 171 μg/mL; cited from earlier work
CYP3A4 = CYP3A4 (Homo sapiens, UniProt P08684); details: gabapentin concentrations up to 171 μg/mL; cited from earlier work
[12] = tested on: NF-κ-B activation in human myeloid ML-1a cells; details: pretreatment of ML-1a cells; dose- and time-dependent; cited from earlier work
[13] = i.v. administration, rats; cited from earlier work
[14] = oral dosing of rats, after 3 hours; cited from earlier work
[15] = 90 g cream (0.025% capsaicin) per week, 100% absorbed, 50 kg person; cited from earlier work
diabetic neuropathy pain [16] = details: human, in vivo

## CN(C)CCC=C1c2ccccc2CCc2ccccc21 [amitriptyline]
Postherpetic neuralgia
  share of patients with a good or moderate response: about two-thirds
[1]
  share of patients with a good or moderate response: three-quarters
[2]
  IC50: 20.2 µM
Cardiac Na+ channels; 0.4 μM, repetitive pulses at a frequency of 5 Hz, cardiac myocytes
  use-dependent block of Na+ current: profound use-dependent block
Cardiac Na+ channels; cardiac Na+ channels
  time constant of recovery from the use-dependent block: 13.6 s
hH1 Na+ channels; 1 μM, 5 Hz
  use-dependent block during repetitive pulses: ~55%
hH1 Na+ channels; inactivated channels, n=7, read-out: IC50, tonic block of inactivated hH1 channels
  IC50: 0.58 ± 0.03 µM
hH1 Na+ channels; resting channels, n=9, read-out: IC50, tonic block of resting hH1 channels
  IC50: 24.8 ± 2 µM

## CC(C)C[C@H](CN)CC(=O)O [Lyrica]
Diabetic neuropathy pain [3]
  pain relief (patient or physician testimony): only minimal resolution of symptoms
  side effects / tolerability: substantial, negative side effects

## COc1cccc(C2(O)CCCCC2CN(C)C)c1 (single isomer, unassigned) [Tramadol Hydrochloride, (1R,2R or 1S,2S)-(dimethylaminomethyl)-1-(3-methoxyphenyl)-cyclohexanol]
Fibromyalgia pain
  Pain Relief (percent of reduction in pain), Fibromyalgia: <10%
Fibromyalgia pain; fibromyalgia patients
  pain relief (patient or physician testimony): moderate relief
[4]; 400 mg of tramadol per day, patients with diabetic neuropathy and fibromyalgia
  reduction in pain: 30-40%
Diabetic Neuropathy
  Pain Relief (percent of reduction in pain), Diabetic Neuropathy: <35 (Sindrup 1999) percent and <35%
Fibromyalgia
  Pain Relief (percent of reduction in pain), Fibromyalgia: <30 (Biasi 1998; percent
μ-opiate receptors
  affinity for μ-opiate receptors relative to dextromethorphan: equivalent
  affinity for μ-opiate receptors, fold less than codeine: 10 fold
  affinity for μ-opiate receptors, fold less than d-propoxyphene: 100 fold
  affinity for μ-opiate receptors, fold less than morphine: 6,000 fold
[5]; after oral administration
  time to peak serum concentrations: ≤ 2 h
[5]
  accumulation during multiple dose treatment: approximately 2 fold
[5]; single oral dose of tramadol 100 mg
  duration of the analgesic effect: about 6 hours
Diabetic neuropathy pain [3]
  Pain Relief (percent of reduction in pain), Diabetic Neuropathy: <10%

## CN(C)C[C@H]1CCCC[C@]1(O)c1cccc(O)c1 [M1 derivative]
[5]; after a single oral dose of 100 mg
  half-life: 9 h
[5]
  accumulation during multiple dose treatment: approximately 2 fold

## COc1ccc(C(CN(C)C)C2(O)CCCCC2)cc1 (racemic) [Venlafaxine hydrochloride, (R/S)-1-[2-(dimethylamino)-1-(4-methoxyphenyl)ethyl]cyclohexanol]
[6]
  octanol:water partition coefficient: 0.43

## CN(C)CCCN1c2ccccc2CCc2ccccc21 [imipramine]
[7]
  IC50: ~6 µM

## COc1ccc2c(c1)[C@]13CCCC[C@@H]1[C@H](C2)N(C)CC3
Fibromyalgia pain
  Pain Relief (percent of reduction in pain), Fibromyalgia: <10%
Diabetic neuropathy pain [3]
  Pain Relief (percent of reduction in pain), Diabetic Neuropathy: <10%

## COc1ccc2c(c1)[C@]13CCCC[C@@H]1[C@H](C2)N(C)CC3 [Dextromethorphan Hydrobromide]
Diabetic Neuropathy
  Pain Relief (percent of reduction in pain), Diabetic Neuropathy: <50 (Sang 2002) percent and <50%
Fibromyalgia
  Pain Relief (percent of reduction in pain), Fibromyalgia: <40 (Staud 2005) percent

## CCCC(C)(COC(N)=O)COC(=O)NC(C)C (stereo not shown) [Soma, Carisoprodol]
[8]
  pain relief (testimony): only seemed to mask the pain
  side effects: quite drowsy

## CC(C)C[C@H](CN)CC(=O)O [pregabalin]
Pain score in patients; 8-week study, 50 and 100 mg three times a day
  endpoint mean pain score and proportion with at least a 50% reduction in pain score: statistically significantly improved
Pain score in patients; 8-week study, 100 or 200 mg three times a day, doses assigned by creatinine clearance
  endpoint mean pain score and proportion with at least a 50% reduction in pain score: statistically significantly improved
Pain score in patients; 13-week study, 75, 150, 300 mg twice daily, creatinine clearance greater than 60 mL/min, all doses
  endpoint mean pain score and proportion with at least a 50% reduction in pain score: statistically significantly improved
Pain score in patients; 100 and 200 mg three times a day
  endpoint mean pain score and proportion with at least a 50% reduction in pain score: statistically significantly improved
[9]
  discontinuation due to dizziness: 3%
  discontinuation due to somnolence: 2%
  patients who discontinued prematurely due to adverse reactions: 9%
  withdrawal due to each of asthenia, confusion, peripheral edema: approximately 1%
[10]; 150-600 mg/day
  patients who discontinued prematurely due to adverse reactions: 19%
[10]
  discontinuation due to dizziness: 6%
  discontinuation due to somnolence: 3%
  withdrawal due to each of fatigue, headache, balance disorder, weight increased: approximately 1%

## NCC1(CC(=O)O)CCCCC1 [Gabapentin]
Fibromyalgia pain
  Pain Relief (percent of reduction in pain), Fibromyalgia: <10%
[4]; up to 1600 mg per day, patients with diabetic neuropathy or fibromyalgia
  relief from pain with prior therapy (physician testimony): partial and marginal relief
Diabetic Neuropathy
  Pain Relief (percent of reduction in pain), Diabetic Neuropathy: <50 (Marchettini percent and <50%
Fibromyalgia
  Pain Relief (percent of reduction in pain), Fibromyalgia: <50 (Lesley 2007) percent
[11]; 900 mg/day given in 3 divided doses
  bioavailability: approximately 60%
[11]; 1200 mg/day given in 3 divided doses
  bioavailability: ~47%
[11]; 2400 mg/day given in 3 divided doses
  bioavailability: ~34%
[11]; 3600 mg/day given in 3 divided doses
  bioavailability: ~33%
[11]; 4800 mg/day given in 3 divided doses
  bioavailability: ~27%
[11]; food effect
  increase in AUC and Cmax with food: 14%
[11]; in vivo
  bound to plasma protein: Less than 3%
[11]; patients with epilepsy
  steady-state predose (Cmin) concentration in cerebrospinal fluid, % of corresponding plasma concentrations: approximately 20%
CYP1A2
  inhibition of CYP1A2: No inhibition
CYP2C9
  inhibition of CYP2C9: No inhibition
CYP2C19
  inhibition of CYP2C19: No inhibition
CYP2D6
  inhibition of CYP2D6: No inhibition
CYP2E1
  inhibition of CYP2E1: No inhibition
CYP3A4
  inhibition of CYP3A4: No inhibition
Diabetic neuropathy pain [3]
  Pain Relief (percent of reduction in pain), Diabetic Neuropathy: <10%
  side effects / tolerability: substantial, negative side effects
Diabetic neuropathy pain [3]; listed as Neurontin
  pain relief (patient or physician testimony): no substantial pain relief
Diabetic neuropathy pain [3]; listed as Nurontin
  pain relief (patient or physician testimony): only curb the pain

## COc1cc(CNC(=O)CCCCC=CC(C)C)ccc1O [capsaicin, 8-methyl-N-vanillyl-6-nonenamide]
[12]
  effect on TNF-mediated activation of NF-κ-B: blocked TNF-mediated activation of NF-κ-B
[13]
  time to distribution to brain, spinal cord, liver and blood: ≤ 20 min
[14]
  absorption in the jejunum: 85%
[15]
  estimated daily exposure: 0.064 mg/kg

## CN(C)CCC=C1c2ccccc2CCc2ccccc21 [Elavil]
Diabetic neuropathy pain [16]
  side effects / tolerability: substantial, negative side effects
Diabetic neuropathy pain [3]
  pain relief (patient or physician testimony): no substantial pain relief
